# Measurements as given in patent US12139505B2, “Compositions useful in therapy of autophagy-related pathologies, and methods of making and using the same” (The University of Toledo, priority 2017, dated 2024).
# “Also recorded” adds a separate entry of the source.
# Legend:
# RG2 glioma cells = assay: Proliferative capacity of glioma cells, tetrazolium reduction assay; assay type: cell-based, rat
# Description: Biomarkers of autophagy have been positively correlated with relatively better prognosis (longer patient lifespan) in humans suffering from high grade glioma. Accordingly, phosphonate analogs were tested for ability to reduce replicative capacity in RG2 glioma cells wherein the compounds increase autophagy. Cells were plated at low density (approximately 25,000 cells/[…]) using general cell culture methods, and treated with logarithmic dilutions of test agent. After 24 or 48 hours, cell number was estimated by tetrazolium reduction assay using a commercially available kit (Promega Aqueous OneStep™). […] By 48 h the cells had largely achieved confluence and became somewhat contact inhibited, thus reducing the difference between control and treatment groups.
# PINK1^B9 flies = assay: Fly sleep behavior; assay type: in vivo, Drosophila melanogaster
# Description: 2-n-hexyl-LKE-P was dissolved in DMSO and supplemented into a warm solution of minimal media (5% sucrose, 2% agarose and water, 60° C.) to a final concentration of 10, 100 and 1000 μM. Freshly eclosed adult flies were transferred to minimal media containing the drug for one day followed by the experiments. Flies were transferred individually, under CO2 anesthesia, into 5 mm×65 mm (outside diameter×length) polycarbonate recording tubes with food on one end and yarn plugs on the other. Sleep parameters were continuously evaluated using the TriKinetics Drosophila activity monitoring system. Sleep is defined as 5 min or more of continuous inactivity, the minimum amount of time to qualify as a single sleep bout. Zeitgeber time (ZT) 0 is defined as the time of lights on, and ZT12 is defined as the time of lights off. Mobility (activity) was also monitored and data tabulated based on the number of beam counts, and diurnal variations were calculated. The sleep and mobility data were collected and analyzed.
# [1] = system: d42-Gal4;UAS-nSyb-GFPxUAS-C9orf72polyGR36 flies; assay: Fly sleep behavior, C9orf72 ALS model; assay type: in vivo, Drosophila melanogaster
# Description: The base for the food was a cornmeal agar product, Nutri-fly BF (Genesee Scientific, Box of 10, 1-liter bags, Cat #66-112). In a 2 L beaker, 1 L of ultrapure water was heated to […], with the stir bar speed set to 600. To the beaker, one bag of Nutri-fly BF was added in small portions. The beaker was covered to maintain temperature (monitored with an inserted thermometer) while stirring as rapidly as possible until the temperature reached 97° C. The food was stirred at this temperature for 10 minutes using a wooden spoon/spatula, then allowed to cool to approximately 65° C. with continuous stirring (magnetic bar). At 65° C., while maintaining constant stirring, 12 mL of Tegosept was added followed by 7 mL of propionic acid solution. To be used as fly maintenance food, the food was allowed to cool to 55° C. and 4 mL of the food was aliquoted (to a depth of approximately 1 inch) into individual vials with mity drosophila plugs (VWR #75813-162 and #10054-506). For use as a drug delivery vehicle, the food was allowed to cool to room temperature while covered with aluminum foil, then sealed with parafilm stored at 4° C. To prepare the food for drug delivery, the food was homogenized at room temperature with an immersion blender. To prepare the drug-infused-food, about half of the calculated food, accurately measured, was added to a 250 mL beaker, followed by the drug (no carrier solvent is used). The drug was then covered with the rest of the food and the contents of the beaker were thoroughly mixed with an overhead mixer (with shroud removed) until the drug was distributed homogeneously within the food. The food was then distributed in 4.00 g aliquots to the vials with plugs (described above). The food-containing vials were centrifuged in 50 mL tubes at an appropriate speed (approximately 1000 to 1400 g) to just force the “drug food” to the bottom of the feeding vial. The vials were closed with the cotton mity plug until use.
# Test flies were transferred individually, under CO2 anesthesia, into 5 mm×65 mm (outside diameter×length) polycarbonate recording tubes with either minimal media or normal fly food on one end and yarn plugs on the other. Sleep parameters were continuously evaluated using the TriKinetics Drosophila activity monitoring system. Sleep is defined as 5 min or more of continuous inactivity, the minimum amount of time to qualify as a single sleep bout. Zeitgeber time (ZT) 0 is defined as the time of lights on and ZT12 is defined as the time of lights off. Mobility (activity) was also monitored and data tabulated based on the number of beam counts and diurnal variations were calculated. The sleep and mobility data were collected and analyzed.
# [2] = system: gmr-Gal4;UAS-C9orf72polyGR36 flies; assay: Fly eye neurodegeneration assay, C9orf72 ALS model; assay type: in vivo, Drosophila melanogaster
# Description: The base for the food was a cornmeal agar product, Nutri-fly BF (Genesee Scientific, Box of 10, 1-liter bags, Cat #66-112). In a 2 L beaker, 1 L of ultrapure water was heated to […], with the stir bar speed set to 600. To the beaker, one bag of Nutri-fly BF was added in small portions. The beaker was covered to maintain temperature (monitored with an inserted thermometer) while stirring as rapidly as possible until the temperature reached 97° C. The food was stirred at this temperature for 10 minutes using a wooden spoon/spatula, then allowed to cool to approximately 65° C. with continuous stirring (magnetic bar). At 65° C., while maintaining constant stirring, 12 mL of Tegosept was added followed by 7 mL of propionic acid solution. To be used as fly maintenance food, the food was allowed to cool to 55° C. and 4 mL of the food was aliquoted (to a depth of approximately 1 inch) into individual vials with mity drosophila plugs (VWR #75813-162 and #10054-506). For use as a drug delivery vehicle, the food was allowed to cool to room temperature while covered with aluminum foil, then sealed with parafilm stored at 4° C. […] To prepare the drug-infused-food, about half of the calculated food, accurately measured, was added to a 250 mL beaker, followed by the drug (no carrier solvent is used). […]
structure (smiles),measurement,setting,value
CCCCCCC1=C(P(=O)(O)O)N[C@H](C(=O)OCC)CS1 [2-n-hexyl-LKE-P],fewer cells (reduced replicative capacity) relative to cells treated with no drug,"RG2 glioma cells; 24 h, greater than or equal to 1 nM",at least 50%
same,concentration range of the minimum in cell number,RG2 glioma cells; 48 h,1 to 10 mM
same,replication of cultures,RG2 glioma cells; first 24 h,replicated more slowly in the first 24 h
same,sleep of treated wild-type flies versus vehicle-treated wild-type flies,PINK1^B9 flies; Day 1 or Day 8,No differences were observed
same,daytime sleep of PINK1^B9 flies,"PINK1^B9 flies; day 1, 1000 μM",did not change the sleeping pattern and the daytime sleeping time; also recorded: did not show any changes
same,daytime sleep of PINK1^B9 flies,"PINK1^B9 flies; day 8 (one week), 1000 μM",decreased the daytime sleeping time; also recorded: reversal of excessive daytime sleep
same,daytime sleeping time of control flies,[1]; d42-Gal4: UAS-nSyb-GFPxUAS-W1118 control flies,did not change the daytime sleeping time of control flies
same,number of sleep bouts during the day,[1]; polyGR36 in motor neurons,decreased the number of sleep bouts during the day
same,total sleep time,[1]; polyGR36 in motor neurons,increased total sleep time
same,daytime sleepiness / daytime sleeping time of mutant flies,"[1]; polyGR36 in motor neurons, drug in food throughout development",decreased the daytime sleeping time of mutant flies; also recorded: rescued the daytime sleepiness
same,failure to eclose from the pupa,[2]; GR dipeptides at repeat number of 100 in the eyes,not able to rescue this phenotype
same,eye phenotype,"[2]; polyGR36 in eyes, 1 and 2 mM in food throughout lifespan",alleviate the eye phenotype in a concentration-dependent manner
